Results from patent US9937183B2, “Antimicrobial compounds and methods of making and using the same” (priority 2013, dated 2018).
Values after ≈ are worked out from the molar mass of the structure shown. Where two headings read alike, the source gives them in different places.

Assays:
Assay type in all cases: cell-based
[1] = tested on: B. mallei; assay: microbe, parasite or virus in culture; details: Burkholderia mallei; for MIC50: read-out: B. mallei MIC50; for MIC90: read-out: B. mallei MIC90; for MIC: read-out: B. mallei MIC Range
[2] = tested on: B. pseudomallei; assay: microbe, parasite or virus in culture; details: Burkholderia pseudomallei; for MIC50: read-out: B. pseudomallei MIC50; for MIC90: read-out: B. pseudomallei MIC90; for MIC: read-out: B. pseudomallei MIC Range
[3] = tested on: E. coli ATCC25922; assay: MIC, microtiter-based liquid assay (CLSI); details: Escherichia coli
[4] = tested on: E. coli 1705878; assay: MIC, microtiter-based liquid assay (CLSI); details: Escherichia coli, MDR strain
[5] = tested on: E. coli MG1655 parent; assay: MIC, microtiter-based liquid assay (CLSI); details: Escherichia coli
[6] = tested on: E. coli CAG12184 TolC; assay: MIC, microtiter-based liquid assay (CLSI); details: Escherichia coli, CAG12184TOLC
[7] = tested on: S. pneumoniae 02J1175 Mef(A); assay: MIC, microtiter-based liquid assay (CLSI); details: Streptococcus pneumoniae
[8] = tested on: S. aureus 11540 MRSA; assay: MIC, microtiter-based liquid assay (CLSI); details: Staphylococcus aureus
[9] = tested on: K. pneumoniae 1705949; assay: MIC, microtiter-based liquid assay (CLSI); details: Klebsiella pneumoniae, MDR strain
[10] = tested on: K. pneumoniae 1705966; assay: MIC, microtiter-based liquid assay (CLSI); details: Klebsiella pneumoniae
[11] = tested on: A. baumannii 1705936; assay: MIC, microtiter-based liquid assay (CLSI); details: Acinetobacter baumannii, MDR strain
[12] = tested on: A. baumannii 1705943; assay: MIC, microtiter-based liquid assay (CLSI); details: Acinetobacter baumannii
[13] = tested on: P. aeruginosa ATCC27853; assay: MIC, microtiter-based liquid assay (CLSI); details: Pseudomonas aeruginosa
[14] = tested on: P. aeruginosa 1705886; assay: MIC, microtiter-based liquid assay (CLSI); details: Pseudomonas aeruginosa
[15] = tested on: P. aeruginosa 1705904; assay: MIC, microtiter-based liquid assay (CLSI); details: Pseudomonas aeruginosa, MDR strain
[16] = tested on: E. faecium A6349 VanA + LNZ-R; assay: MIC, microtiter-based liquid assay (CLSI); details: Enterococcus faecium
[17] = tested on: B. anthracis; assay: microbe, parasite or virus in culture; details: Bacillus anthracis; for MIC50: read-out: B. anthracis MIC50; for MIC90: read-out: B. anthracis MIC90; for MIC: read-out: B. anthracis MIC Range
[18] = tested on: Y. pestis; assay: microbe, parasite or virus in culture; details: Yersinia pestis; for MIC50: read-out: Y. pestis MIC50; for MIC90: read-out: Y. pestis MIC90; for MIC: read-out: Y. pestis MIC Range
[19] = tested on: F. tularensis; assay: microbe, parasite or virus in culture; details: Francisella tularensis; for MIC50: read-out: F. tularensis MIC50; for MIC90: read-out: F. tularensis MIC90; for MIC: read-out: F. tularensis MIC Range
[20] = ATCC25922, read-out: MIC E. coli ATCC25922 + 50% HS
[21] = ATCC25922, read-out: MIC E. coli ATCC25922

SMILES | MIC50 [1] [µg/mL] | MIC90 [1] [µg/mL] | MIC [1] [µg/mL] | MIC50 [2] [µg/mL] | MIC90 [2] [µg/mL] | MIC [2] [µg/mL] | MIC [3, 20] [µg/mL] | MIC [3, 21] [µg/mL] | MIC [4] [µg/mL] | MIC [5] [µg/mL] | MIC [6] [µg/mL] | MIC [7] [µg/mL] | MIC [8] [µg/mL] | MIC [9] [µg/mL] | MIC [10] [µg/mL] | MIC [11] [µg/mL] | MIC [12] [µg/mL] | MIC [13] [µg/mL] | MIC [14] [µg/mL] | MIC [15] [µg/mL] | other results
CC[C@H]1OC(=O)[C@H](C)[C@@H](O[C@H]2C[C@@](C)(OC)[C@@H](O)[C@H](C)O2)[C@H](C)[C@@H](O[C@@H]2O[C@H](C)C[C@H](N(C)C)[C@H]2O)[C@](C)(O)C[C@@H](C)CN(C)[C@H](C)[C@@H](O)[C@]1(C)O [Azithromycin, reference compound] | 0.5 (≈ 0.668 µM) | 1 (≈ 1.34 µM) | 0.12 to 1 (≈ 0.16 to 1.34 µM) | – | – | – | – | – | – | – | – | – | – | – | – | – | – | – | – | – | –
CC(C)(O/N=C(\C(=O)N[C@@H]1C(=O)N2C(C(=O)[O-])=C(C[n+]3ccccc3)CS[C@H]12)c1csc(N)n1)C(=O)O [Ceftazidime, reference compound] | – | – | – | 2 (≈ 3.66 µM) | 4 (≈ 7.32 µM) | 1 to 64 (≈ 1.83 to 117 µM) | – | – | – | – | – | – | – | – | – | – | – | – | – | – | –
C[C@@H](N)CCCc1cc(Cl)c(F)c(-c2cc3cn(-c4ccc(CNCCCNC(=N)N)cc4)c(=O)nc3[nH]2)c1 [Compound 1] | ≤ 0.03 | 0.06 (≈ 0.108 µM) | 0.03 to 0.25 (≈ 0.0542 to 0.452 µM) | 4 (≈ 7.23 µM) | 4 (≈ 7.23 µM) | 0.5 to 16 (≈ 0.904 to 28.9 µM) | 0.125 | 0.125 (≈ 0.226 µM) | 1 (≈ 1.81 µM) | 0.5 (≈ 0.904 µM) | 0.06 (≈ 0.108 µM) | 0.25 (≈ 0.452 µM) | 0.125 (≈ 0.226 µM) | 2 (≈ 3.62 µM) | 0.25 (≈ 0.452 µM) | 4 (≈ 7.23 µM) | 0.25 (≈ 0.452 µM) | 4 (≈ 7.23 µM) | 2 (≈ 3.62 µM) | 8 (≈ 14.5 µM) | MIC [16]: 4 µg/mL; MIC50 [17]: 0.12 µg/mL (≈ 0.217 µM); MIC90 [17]: 0.25 µg/mL (≈ 0.452 µM); MIC [17]: 0.03 to 0.25 µg/mL (≈ 0.0542 to 0.452 µM); MIC50 [18]: 0.12 µg/mL (≈ 0.217 µM); MIC90 [18]: 0.25 µg/mL (≈ 0.452 µM); MIC [18]: 0.03 to 0.5 µg/mL (≈ 0.0542 to 0.904 µM); MIC50 [19]: ≤ 0.03 µg/mL; MIC90 [19]: ≤ 0.03 µg/mL; MIC [19]: 0.03 to 0.5 µg/mL (≈ 0.0542 to 0.904 µM)
CCc1cc(CCC[C@H](C)N)cc(-c2cc3cn(-c4ccc(CNCCCNC(=N)N)cc4)c(=O)nc3[nH]2)c1F [Compound 2] | ≤ 0.03 | 0.06 (≈ 0.11 µM) | 0.03 to 0.25 (≈ 0.0549 to 0.457 µM) | 2 (≈ 3.66 µM) | 4 (≈ 7.32 µM) | 0.5 to 8 (≈ 0.915 to 14.6 µM) | 0.25 | 0.125 (≈ 0.229 µM) | 1 (≈ 1.83 µM) | 0.25 (≈ 0.457 µM) | 0.125 (≈ 0.229 µM) | 0.125 (≈ 0.229 µM) | 0.25 (≈ 0.457 µM) | 0.5 (≈ 0.915 µM) | 0.25 (≈ 0.457 µM) | 4 (≈ 7.32 µM) | 0.25 (≈ 0.457 µM) | 4 (≈ 7.32 µM) | 2 (≈ 3.66 µM) | 8 (≈ 14.6 µM) | MIC [16]: 2 µg/mL; MIC50 [17]: 0.12 µg/mL (≈ 0.22 µM); MIC90 [17]: 0.12 µg/mL (≈ 0.22 µM); MIC [17]: 0.03 to 1 µg/mL (≈ 0.0549 to 1.83 µM); MIC50 [18]: 0.12 µg/mL (≈ 0.22 µM); MIC90 [18]: 0.25 µg/mL (≈ 0.457 µM); MIC [18]: 0.03 to 0.25 µg/mL (≈ 0.0549 to 0.457 µM); MIC50 [19]: ≤ 0.03 µg/mL; MIC90 [19]: ≤ 0.03 µg/mL; MIC [19]: 0.03 to 0.25 µg/mL (≈ 0.0549 to 0.457 µM)
C[C@H](N)CCCc1cc(OC(F)(F)F)c(F)c(-c2cc3cn(-c4ccc([C@H](C)NCCCNC(=N)N)cc4)c(=O)nc3[nH]2)c1 [Compound 3] | 0.06 (≈ 0.0973 µM) | 0.12 (≈ 0.195 µM) | 0.03 to 0.5 (≈ 0.0486 to 0.811 µM) | 2 (≈ 3.24 µM) | 4 (≈ 6.49 µM) | 0.5 to 8 (≈ 0.811 to 13 µM) | 0.5 | 0.25 (≈ 0.405 µM) | 0.5 (≈ 0.811 µM) | 0.5 (≈ 0.811 µM) | 0.25 (≈ 0.405 µM) | 0.25 (≈ 0.405 µM) | 0.25 (≈ 0.405 µM) | 1 (≈ 1.62 µM) | 0.25 (≈ 0.405 µM) | 2 (≈ 3.24 µM) | 0.25 (≈ 0.405 µM) | 8 (≈ 13 µM) | 4 (≈ 6.49 µM) | 8 (≈ 13 µM) | MIC [16]: 2 µg/mL; MIC50 [17]: 0.25 µg/mL (≈ 0.405 µM); MIC90 [17]: 0.25 µg/mL (≈ 0.405 µM); MIC [17]: 0.03 to 2 µg/mL (≈ 0.0486 to 3.24 µM); MIC50 [18]: 0.25 µg/mL (≈ 0.405 µM); MIC90 [18]: 0.5 µg/mL (≈ 0.811 µM); MIC [18]: 0.03 to 1 µg/mL (≈ 0.0486 to 1.62 µM); MIC50 [19]: ≤ 0.03 µg/mL; MIC90 [19]: 0.12 µg/mL (≈ 0.195 µM); MIC [19]: 0.03 to 1 µg/mL (≈ 0.0486 to 1.62 µM)
